Experiments:
[1] = Bioavailability of compound [1] taken orally before or after a meal; format: in vivo
blood sugar level = settings: taken orally; cited from earlier work

bioavailability [1]: lowered
Structure (SMILES): CC(C)[C@H]1CC[C@H](C(=O)N[C@H](Cc2ccccc2)C(=O)O)CC1 [compound [1], N-(trans-4-isopropylcyclohexanecarbonyl)-D-phenylalanine]
effect of lowering the blood sugar level (blood sugar level): excellent effect of lowering the blood sugar level
